Assay [1] concerns the target T1, δ-opioid receptor (Homo sapiens, UniProt P41143). Particulars: read-out: Receptor affinity Kiδ; cited from earlier work.
Assay [2] addresses κ-opioid receptor (Homo sapiens, UniProt P41145). Put plainly: Radioligand competition binding, displacement of [3H]U69,593. For orientation: Loss of bound radioactivity is the signal in a displacement assay; it reports binding, not function.
For assay [3], the target named is μ-opioid receptors (GPI). In words: GPI/LMMP in vitro tissue bioassay. The format is biochemical, guinea pig. The settings on record: read-out: Bioassay GPI (IC50); ± S.E.M.
The target in assay [4] is T2, μ-opioid receptor (Homo sapiens, UniProt P35372). Put plainly: Radioligand competition binding, displacement of [3H]DAMGO. The settings on record: for Selectivity Kiδ/Kiμ: ratio of δ and μ binding Ki.
Assay [5] deals with T1, δ-opioid receptor. Put plainly: Radioligand competition binding, displacement of [3H]DPDPE.
The target of assay [6] is T2, μ-opioid receptor. The settings on record: ratio of δ and μ binding Ki; cited from earlier work.
Assay [7] deals with δ-opioid receptors (MVD) (Mus musculus, UniProt P32300). In words: MVD in vitro tissue bioassay. The assay is classed as biochemical.

Like-named read-outs stand apart in the source and are kept apart here. Where a SMILES comes first, the peptide text is derived from it. [ ]: non-standard residue; d: D form. d(β3hP) = O=C(O)C[C@H]1CCCN1; β3hP = O=C(O)C[C@@H]1CCCN1

Consider “Tyr–Pro–Phe–Pro–NH2 (YPFP) [Morphyceptin]”, for which the Ki in assay [1] was greater than 10000 nM.

As for `NC(=O)[C@@H]1CCCN1C(=O)[C@H](Cc1ccccc1)NC(=O)C[C@H]1CCCN1C(=O)[C@@H](N)Cc1ccc(O)cc1` [Compound 7b, H–Tyr–(R)-HPro–Phe–Pro–NH2] (H-Y[d(β3hP)]FP-NH2), the values for the Ki in assay [2], in assay [4] and in assay [5] were 10000 ± 982 nM, 30 ± 4 nM and greater than 10000 nM, respectively. Also, in assay [3], the IC50 (commonly the midpoint of a concentration-inhibition curve) worked out at 17 ± 3 nM. Besides, in assay [4], the “Selectivity Kiδ/Kiμ” value is greater than 333.

For Tyr–Pro–Phe–Pro–NH2 [Morphyceptin], the “Selectivity Kiδ/Kiμ” value in assay [6] was greater than 74.1.

`NC(=O)[C@H](Cc1ccccc1)NC(=O)[C@H](Cc1ccccc1)NS(=O)(=O)C[C@@H]1CCCN1C(=O)[C@@H](N)Cc1ccc(O)cc1` [Compound 6c, H–Tyr–(S)-HPrs–Phe–Phe–NH2]: the Ki in assay [2] was 4800 ± 367 nM; in assay [4], 100 ± 8 nM.

In the case of `NC(=O)[C@H](Cc1ccccc1)NC(=O)[C@H](Cc1ccccc1)NC(=O)C[C@@H]1CCCN1C(=O)[C@@H](N)Cc1ccc(O)cc1` [Compound 6a, H–Tyr–(S)-HPro–Phe–Phe–NH2], the Ki was 990 ± 12 nM in assay [2] and 58 ± 5 nM in assay [4].

For the compound `NC(=O)[C@H](Cc1ccccc1)NC(=O)[C@H](Cc1ccccc1)NC(=O)C[C@H]1CCCN1C(=O)[C@@H](N)Cc1ccc(O)cc1` [Compound 6b, H–Tyr–(R)-HPro–Phe–Phe–NH2], the Ki was 10000 ± 1200 nM in assay [2], 293 ± 27 nM in assay [4] and greater than 10000 nM in assay [5]. Further, the “Selectivity Kiδ/Kiμ” value in assay [4] is reported as greater than 34.

Take `NC(=O)[C@@H]1CCCN1C(=O)[C@H](Cc1ccccc1)NC(=O)C[C@@H]1CCCN1C(=O)[C@@H](N)Cc1ccc(O)cc1` [Compound 7a, H–Tyr–(S)-HPro–Phe–Pro–NH2] (H-Y[β3hP]FP-NH2): the Ki in assay [2] was 4400 ± 356 nM; in assay [4], 6100 ± 553 nM; in assay [5], greater than 10000 nM. The half-maximal inhibitory concentration (IC50) in assay [3] came to 1100 ± 115 nM. Also, the “Bioassay MVD, % at 1 μM” value in assay [7] is given as 33.7% at 1 μM.

The record behind these values is paper PMC5689459 (European journal of medicinal chemistry, 2010).
